Experimental data: PubChem BioAssay (NCI)
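These data come from cells grown in 96-well plates and exposed to compound for 48 hours at five concentrations. TGI marks complete inhibition of growth.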

Key:
Test in all cases: NCI tumour cell line growth inhibition, 48 h
A498 renal = test system: A498 renal
A549 NSCLC = test system: A549 NSCLC
CCRF-CEM leukemia = test system: CCRF-CEM leukemia
COLO 205 colon = test system: COLO 205 colon
DLD-1 colon = test system: DLD-1 colon
DMS 114 small cell lung = test system: DMS 114 small cell lung
DMS 273 small cell lung = test system: DMS 273 small cell lung
EKVX NSCLC = test system: EKVX NSCLC
HCC-2998 colon = test system: HCC-2998 colon
HCT-116 colon = test system: HCT-116 colon
HCT-15 colon = test system: HCT-15 colon
HL-60(TB) leukemia = test system: HL-60(TB) leukemia
HOP-18 NSCLC = test system: HOP-18 NSCLC
HOP-62 NSCLC = test system: HOP-62 NSCLC
HOP-92 NSCLC = test system: HOP-92 NSCLC
HT29 colon = test system: HT29 colon
IGROV1 ovarian = test system: IGROV1 ovarian
K-562 leukemia = test system: K-562 leukemia
KM12 colon = test system: KM12 colon
KM20L2 colon = test system: KM20L2 colon
LOX IMVI melanoma = test system: LOX IMVI melanoma
M19-MEL melanoma = test system: M19-MEL melanoma
MALME-3M melanoma = test system: MALME-3M melanoma
MCF7 breast = test system: MCF7 breast
MOLT-4 leukemia = test system: MOLT-4 leukemia
NCI-H226 lung = test system: NCI-H226 lung
NCI-H23 lung = test system: NCI-H23 lung
NCI-H460 lung = test system: NCI-H460 lung
NCI-H522 lung = test system: NCI-H522 lung
NCI/ADR-RES ovarian = test system: NCI/ADR-RES ovarian
OVCAR-3 ovarian = test system: OVCAR-3 ovarian
OVCAR-4 ovarian = test system: OVCAR-4 ovarian
OVCAR-5 ovarian = test system: OVCAR-5 ovarian
OVCAR-8 ovarian = test system: OVCAR-8 ovarian
P388 leukemia = test system: P388 leukemia
RPMI-8226 leukemia = test system: RPMI-8226 leukemia
RXF 393 renal = test system: RXF 393 renal
SF-268 CNS = test system: SF-268 CNS
SF-295 CNS = test system: SF-295 CNS
SF-539 CNS = test system: SF-539 CNS
SK-MEL-2 melanoma = test system: SK-MEL-2 melanoma
SK-MEL-28 melanoma = test system: SK-MEL-28 melanoma
SK-MEL-5 melanoma = test system: SK-MEL-5 melanoma
SK-OV-3 ovarian = test system: SK-OV-3 ovarian
SN12C renal = test system: SN12C renal
SN12K1 renal = test system: SN12K1 renal
SNB-19 CNS = test system: SNB-19 CNS
SNB-75 CNS = test system: SNB-75 CNS
SNB-78 CNS = test system: SNB-78 CNS
SW-620 colon = test system: SW-620 colon
U251 CNS = test system: U251 CNS
UACC-257 melanoma = test system: UACC-257 melanoma
UACC-62 melanoma = test system: UACC-62 melanoma
UO-31 renal = test system: UO-31 renal
XF 498 CNS = test system: XF 498 CNS
CAKI-1 renal = test system: CAKI-1 renal
P388/ADR leukemia = test system: P388/ADR leukemia

CCCCCOc1ccc(C=Nc2ccc(-c3ccc(N=Cc4ccc(OCCCCC)cc4)c(OC)c3)cc2OC)cc1
TGI (A498 renal): > 100 µM
TGI (A549 NSCLC): > 100 µM
TGI (CCRF-CEM leukemia): > 100 µM
TGI (COLO 205 colon): > 100 µM
TGI (DLD-1 colon): > 100 µM
TGI (DMS 114 small cell lung): > 100 µM
TGI (DMS 273 small cell lung): > 100 µM
TGI (EKVX NSCLC): > 100 µM
TGI (HCC-2998 colon): > 100 µM
TGI (HCT-116 colon): > 100 µM
TGI (HCT-15 colon): > 100 µM
TGI (HL-60(TB) leukemia): > 100 µM
TGI (HOP-18 NSCLC): > 100 µM
TGI (HOP-62 NSCLC): > 100 µM
TGI (HOP-92 NSCLC): > 100 µM
TGI (HT29 colon): > 100 µM
TGI (IGROV1 ovarian): > 100 µM
TGI (K-562 leukemia): > 31.6 µM
TGI (KM12 colon): > 100 µM
TGI (KM20L2 colon): > 100 µM
TGI (LOX IMVI melanoma): > 100 µM
TGI (M19-MEL melanoma): > 100 µM
TGI (MALME-3M melanoma): > 100 µM
TGI (MCF7 breast): > 100 µM
TGI (MOLT-4 leukemia): > 100 µM
TGI (NCI-H226 lung): > 100 µM
TGI (NCI-H23 lung): > 100 µM
TGI (NCI-H460 lung): > 100 µM
TGI (NCI-H522 lung): > 100 µM
TGI (NCI/ADR-RES ovarian): > 100 µM
TGI (OVCAR-3 ovarian): > 100 µM
TGI (OVCAR-4 ovarian): > 31.6 µM
TGI (OVCAR-5 ovarian): > 100 µM
TGI (OVCAR-8 ovarian): > 100 µM
TGI (P388 leukemia): > 100 µM
TGI (RPMI-8226 leukemia): > 100 µM
TGI (RXF 393 renal): > 100 µM
TGI (SF-268 CNS): > 100 µM
TGI (SF-295 CNS): > 100 µM
TGI (SF-539 CNS): > 100 µM
TGI (SK-MEL-2 melanoma): > 100 µM
TGI (SK-MEL-28 melanoma): > 100 µM
TGI (SK-MEL-5 melanoma): > 100 µM
TGI (SK-OV-3 ovarian): > 100 µM
TGI (SN12C renal): > 100 µM
TGI (SN12K1 renal): > 100 µM
TGI (SNB-19 CNS): > 100 µM
TGI (SNB-75 CNS): > 100 µM
TGI (SNB-78 CNS): > 100 µM
TGI (SW-620 colon): > 100 µM
TGI (U251 CNS): > 100 µM
TGI (UACC-257 melanoma): > 100 µM
TGI (UACC-62 melanoma): > 100 µM
TGI (UO-31 renal): > 100 µM
TGI (XF 498 CNS): > 100 µM

CN(C)CCN=C1c2ccccc2-c2c(=O)n(CCN(C)C)c(O)c3cccc1c23
TGI (A498 renal): 2.19 µM
TGI (A549 NSCLC): 0.461 µM
TGI (CAKI-1 renal): 2.7 µM
TGI (CCRF-CEM leukemia): 10.5 µM
TGI (COLO 205 colon): 0.27 µM
TGI (DLD-1 colon): 0.217 µM
TGI (DMS 114 small cell lung): 0.499 µM
TGI (DMS 273 small cell lung): 0.508 µM
TGI (EKVX NSCLC): 0.987 µM
TGI (HCC-2998 colon): 0.494 µM
TGI (HCT-116 colon): 0.432 µM
TGI (HCT-15 colon): 0.245 µM
TGI (HL-60(TB) leukemia): 0.592 µM
TGI (HOP-18 NSCLC): 0.603 µM
TGI (HOP-62 NSCLC): 4.04 µM
TGI (HOP-92 NSCLC): 0.563 µM
TGI (HT29 colon): 0.257 µM
TGI (IGROV1 ovarian): 0.616 µM
TGI (KM12 colon): 1.25 µM
TGI (KM20L2 colon): 0.783 µM
TGI (LOX IMVI melanoma): 0.185 µM
TGI (MALME-3M melanoma): 1.6 µM
TGI (MCF7 breast): 0.944 µM
TGI (MOLT-4 leukemia): 28 µM
TGI (NCI-H226 lung): 3.35 µM
TGI (NCI-H23 lung): 0.258 µM
TGI (NCI-H460 lung): 0.339 µM
TGI (NCI-H522 lung): 0.315 µM
TGI (NCI/ADR-RES ovarian): 0.289 µM
TGI (OVCAR-3 ovarian): 0.689 µM
TGI (OVCAR-4 ovarian): 0.154 µM
TGI (OVCAR-5 ovarian): 0.794 µM
TGI (OVCAR-8 ovarian): 0.433 µM
TGI (RPMI-8226 leukemia): 12.9 µM
TGI (RXF 393 renal): 0.085 µM
TGI (SF-268 CNS): 0.578 µM
TGI (SF-295 CNS): 0.605 µM
TGI (SF-539 CNS): 1.82 µM
TGI (SK-MEL-2 melanoma): 0.857 µM
TGI (SK-MEL-28 melanoma): 0.862 µM
TGI (SK-MEL-5 melanoma): 1.95 µM
TGI (SK-OV-3 ovarian): 1.4 µM
TGI (SN12C renal): 0.674 µM
TGI (SN12K1 renal): 0.851 µM
TGI (SNB-19 CNS): 1.73 µM
TGI (SNB-75 CNS): 0.487 µM
TGI (SNB-78 CNS): 1.73 µM
TGI (SW-620 colon): 0.493 µM
TGI (U251 CNS): 0.752 µM
TGI (UACC-257 melanoma): 1.25 µM
TGI (UACC-62 melanoma): 0.734 µM
TGI (UO-31 renal): 3.97 µM
TGI (XF 498 CNS): 0.922 µM

O=[N+]([O-])c1ccc2[nH]c3c(-c4ccccc4)nccc3c2c1
TGI (A498 renal): > 100 µM
TGI (A549 NSCLC): > 62 µM
TGI (CCRF-CEM leukemia): 62.7 µM
TGI (COLO 205 colon): > 86.8 µM
TGI (DLD-1 colon): > 94.3 µM
TGI (DMS 114 small cell lung): > 87.2 µM
TGI (DMS 273 small cell lung): 18.1 µM
TGI (EKVX NSCLC): > 79.3 µM
TGI (HCC-2998 colon): 71 µM
TGI (HCT-116 colon): > 51.8 µM
TGI (HCT-15 colon): > 74.7 µM
TGI (HL-60(TB) leukemia): 26.4 µM
TGI (HOP-18 NSCLC): 61.9 µM
TGI (HOP-62 NSCLC): 43 µM
TGI (HOP-92 NSCLC): 65.9 µM
TGI (HT29 colon): > 100 µM
TGI (IGROV1 ovarian): 48.6 µM
TGI (K-562 leukemia): > 100 µM
TGI (KM12 colon): > 100 µM
TGI (KM20L2 colon): > 100 µM
TGI (LOX IMVI melanoma): > 100 µM
TGI (M19-MEL melanoma): > 78.4 µM
TGI (MALME-3M melanoma): 50.7 µM
TGI (MCF7 breast): > 60.3 µM
TGI (MOLT-4 leukemia): 16.4 µM
TGI (NCI-H226 lung): 50.5 µM
TGI (NCI-H23 lung): > 100 µM
TGI (NCI-H460 lung): 40.9 µM
TGI (NCI-H522 lung): 37.4 µM
TGI (NCI/ADR-RES ovarian): > 65.1 µM
TGI (OVCAR-3 ovarian): 39.4 µM
TGI (OVCAR-4 ovarian): > 63.1 µM
TGI (OVCAR-5 ovarian): > 100 µM
TGI (OVCAR-8 ovarian): > 58.7 µM
TGI (P388 leukemia): > 47.3 µM
TGI (P388/ADR leukemia): 31.4 µM
TGI (RPMI-8226 leukemia): > 100 µM
TGI (RXF 393 renal): > 96.2 µM
TGI (SF-268 CNS): > 80 µM
TGI (SF-295 CNS): 45.7 µM
TGI (SF-539 CNS): > 100 µM
TGI (SK-MEL-2 melanoma): 76.6 µM
TGI (SK-MEL-28 melanoma): > 85.3 µM
TGI (SK-MEL-5 melanoma): > 61.1 µM
TGI (SK-OV-3 ovarian): 55.7 µM
TGI (SN12C renal): > 84.6 µM
TGI (SN12K1 renal): 79.9 µM
TGI (SNB-19 CNS): 58.5 µM
TGI (SNB-75 CNS): 38.3 µM
TGI (SNB-78 CNS): 93.1 µM
TGI (SW-620 colon): > 89.7 µM
TGI (U251 CNS): > 64.9 µM
TGI (UACC-257 melanoma): 89.4 µM
TGI (UACC-62 melanoma): 38.6 µM
TGI (UO-31 renal): 44.4 µM
TGI (XF 498 CNS): > 61.7 µM
